Assay results as given in US20250127913A1, “BIFUNCTIONAL FOLATE RECEPTOR BINDING COMPOUNDS” (LYCIA THERAPEUTICS, INC., priority 2021, published 2025).

Legend:
[1] = biological target: TNFα (Homo sapiens (Human), UniProt P01375); test: TNFα binding assay (time-resolved FRET, biotinylated TNFα); settings: 1 nM biotinylated TNFα, 80 nM probe, 16 hr incubation; read-out: TNF-HTRF-biotin
Method: TNFα binding was measured in black 96-well plates using a time-resolved FRET assay using a previously described fluorescence acceptor TNFα probe (Xiao et al J. Med. Chem. 2020). Biotinylated TNFα was purchased from Acro Biosystems. Binding reactions were conducted in 20 mM Hepes (pH 7.5) 10 mM MgCl2 0.015% Tween-20 0.05 mg/ml BSA 2% DMSO with 1 nM TNFα 0.5 nM Streptavidin-Tb and 80 nM probe. Test compounds were resuspended in DMSO and 3-fold serial dilutions were made at 100× final concentrations. Fluorescence was measured using λex=340 nm, λem=490, 520 nm on an SpectraMax M5e plate reader (Molecular Devices) after 16 hr incubation time. Dose responses were conducted in duplicate and normalized to the response with DMSO (high) and 100 nM (R)-3-(1-((3-chloro-7-fluoro-6-(2-(2-hydroxypropan-2-yl)pyrimidin-5-yl)-2-methyl-1,5-naphthyridin-4-yl)amino)ethyl)-4-fluorobenzonitrile (low) on each plate. IC50 values were determined by fitting to 4-parameter curves in GraphPad Prism.

[2] = biological target: T1, folate receptor beta (Homo sapiens (Human), UniProt P14207); test: Folate receptor binding assay (fluorescence polarization); settings: 2.5 nM folate receptor beta, 2 nM FR-Cy probe, 2 hr incubation; read-out: FOLR2-FP
Method: Folate receptor binding was measured in black 96-well plates using a fluorescence polarization assay. A fluorescent probe consisting of a folate analog linked to Cy5 (FR-Cy) was custom synthesized.
Test compounds were resuspended in DMSO and 3-fold serial dilutions were made from 300-0.015 μM (100× final concentrations). Binding reactions were conducted in 200 μl final volume in 20 mM Hepes (pH 7.5) 250 mM NaCl 0.0150 Tween-20 1% DMSO with 2.5 nM folate receptor beta (Acro Biosystems) and 2 nM probe. Fluorescence polarization was measured using λex=620 nm, λem=688 nm on an Envision plate reader (Perkin Elmer) after 2 hr incubation time. Dose responses were conducted in duplicate and normalized to the response with DMSO (high) and 1 μM folic acid (low) on each plate. IC50 values were determined by fitting to 4-parameter curves in GraphPad Prism.

[3] = biological target: T1, folate receptor beta; test: Folate receptor SPR assay (biotinylated folate receptor beta on streptavidin chip); type: binding; settings: for Rmax: biotinylated folate receptor beta on streptavidin chip; for kd / Kd / kon: multi-cycle kinetics, 25° C., 1:1 model; for Kd: read-out: FOLR2Biotin - SPR Kd; for kon: pH 7.5, read-out: ka
Method: Folate receptor SPR binding assays were conducted on a Biacore 8K instrument (Cytiva) using biotinylated folate receptor beta (Acro Biosystems). Briefly, folate receptor was immobilized at -550 RU on a streptavidin chip (Cytiva) in 10 mM HEPES pH 7.5, 150 mM NaCl, 0.05% Tween 20. Multi-cycle kinetic studies were conducted with 8 compound concentrations using 2-fold dilutions in 10 mM HEPES pH 7.5, 150 mM NaCl, 0.05% Tween 20, 2% DMSO at 25° C. A flow rate or 75 μl/mmn with an association time of 120 s and a dissociation time of 600 s were used. Surfaces were regenerated with 4 M MgCl2 at 30 μl/min for 30 s. Data were fit to a 1:1 model to determine the reported binding parameters.

[4] = biological target: TNFα and streptavidin immobilized FOL2R (Homo sapiens (Human), UniProt P01375+P14207); test: Ternary complex SPR assay; type: binding; settings: 10 nM compound, max response normalized to expected response; for TC 60 nM taggless TNF normalized: 60 nM untagged TNF; for TC 300 nM- tagless TNF Normalized: 300 nM untagged TNF; for TC 150 nM- tagless TNF Normalized: 150 nM untagged TNF
Method: Folate receptor-TNFα ternary complex SPR assays were conducted on a Biacore 8K instrument (Cytiva) using biotinylated folate receptor beta (Acro Biosystems). Folate receptor was immobilized at -1800 RU on a streptavidin chip (Cytiva) in 10 mM HEPES pH 7.5, 150 mM NaCl, 0.05% Tween 20. Untagged TNF was preincubated with 10 nM compound for 6 hr in 10 mM HEPES pH 7.5, 150 mM NaCl, 0.05 Tween 20, 2% DMSO at 25° C. Samples were then injected over the folate receptor surface at 30 μl/min with an association time of 110 s and a dissociation time of 600 s. Surfaces were regenerated with 4 M MgCl2 at 30 μl/mm for 30 s. The maximum measured response was normalized by comparison to the maximum expected response for each compound.

TNFα and streptavidin immobilized FOL2R, sequence (P14207 17-230): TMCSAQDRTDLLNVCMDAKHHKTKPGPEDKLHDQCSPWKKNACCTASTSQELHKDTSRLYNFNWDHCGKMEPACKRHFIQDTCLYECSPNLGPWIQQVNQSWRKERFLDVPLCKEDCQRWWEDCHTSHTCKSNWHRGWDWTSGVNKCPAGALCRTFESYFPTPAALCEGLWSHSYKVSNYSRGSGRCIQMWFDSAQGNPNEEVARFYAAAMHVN
TNFα and streptavidin immobilized FOL2R, sequence (P01375 77-233): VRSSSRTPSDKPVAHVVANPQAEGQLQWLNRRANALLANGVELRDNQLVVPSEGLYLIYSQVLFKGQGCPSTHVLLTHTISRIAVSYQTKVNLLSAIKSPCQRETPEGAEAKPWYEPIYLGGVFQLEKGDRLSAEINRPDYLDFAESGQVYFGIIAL
T1 sequence (P14207 17-255): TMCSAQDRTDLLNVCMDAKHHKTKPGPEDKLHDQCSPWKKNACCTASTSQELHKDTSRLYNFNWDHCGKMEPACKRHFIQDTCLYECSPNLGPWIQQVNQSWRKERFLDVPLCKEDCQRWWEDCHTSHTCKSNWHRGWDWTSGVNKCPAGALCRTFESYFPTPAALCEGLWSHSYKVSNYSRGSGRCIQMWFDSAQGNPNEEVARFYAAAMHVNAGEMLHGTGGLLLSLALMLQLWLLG
TNFα, sequence (P01375 77-233): as the sequence (P01375 77-233) above

SMILES	IC50 [1] [nM]	IC50 [2] [nM]	Rmax [3] [RU]	kd [3] [s⁻¹]	Kd [3] [nM]	kon [3] [M⁻¹ s⁻¹]	TC 60 nM taggless TNF normalized [4] [%]	TC 300 nM- tagless TNF Normalized [4] [%]	TC 150 nM- tagless TNF Normalized [4] [%]
Cc1nc2cc(F)c(-c3cnc(N4CCN(C(=O)COCCOCCOCCOCCOCCn5cc(CC[C@H](NC(=O)c6ccc(NCc7cnc8nc(N)nc(O)c8n7)cc6)C(=O)O)nn5)CC4)nc3)nc2c(N[C@H](C)c2cc(C#N)ccc2F)c1Cl [Compound I-89, (S)-2-(4-(((2-amino-4-hydroxypteridin-6-yl)methyl)amino)benzamido)-4-(1-(17-(4-(5-(7-chloro-8-(((R)-1-(5-cyano-2-fluorophenyl)ethyl)amino)-3-fluoro-6-methyl-1,5-naphthyridin-2-yl)pyrimidin-2-yl)piperazin-1-yl)-17-oxo-3,6,9,12,15-pentaoxaheptadecyl)-1H-1,2,3-triazol-4-yl)butanoic acid]	42	8.4	31.1	0.000337	0.223	1.51e+06	11.6	15	–
Cc1nc2cc(F)c(-c3cnc(N4CCN(C(=O)COCCn5cc(COCCOCCOCCOCCNC(=O)CCCNC(=O)c6ccc(NCc7cnc8nc(N)nc(O)c8n7)cc6)nn5)CC4)nc3)nc2c(N[C@H](C)c2cc(C#N)ccc2F)c1Cl [Compound I-96, (R)-4-(((2-amino-4-hydroxypteridin-6-yl)methyl)amino)-N-(1-(1-(2-(2-(4-(5-(7-chloro-8-((1-(5-cyano-2-fluorophenyl)ethyl)amino)-3-fluoro-6-methyl-1,5-naphthyridin-2-yl)pyrimidin-2-yl)piperazin-1-yl)-2-oxoethoxy)ethyl)-1H-1,2,3-triazol-4-yl)-15-oxo-2,5,8,11-tetraoxa-14-azaoctadecan-18-yl)benzamide]	56	20	17.1	0.00129	0.101	1.27e+07	12.3	19.2	17.1
Cc1nc2cc(F)c(-c3cnc(N4CCN(C(=O)COCCn5cc(CN(C)CCOCCOCCOCCNC(=O)CC[C@H](NC(=O)c6ccc(NCc7cnc8nc(N)nc(O)c8n7)cc6)C(=O)O)nn5)CC4)nc3)nc2c(N[C@H](C)c2cc(C#N)ccc2F)c1Cl [Compound I-94, (S)-18-(4-(((2-amino-4-hydroxypteridin-6-yl)methyl)amino)benzamido)-1-(1-(2-(2-(4-(5-(7-chloro-8-(((R)-1-(5-cyano-2-fluorophenyl)ethyl)amino)-3-fluoro-6-methyl-1,5-naphthyridin-2-yl)pyrimidin-2-yl)piperazin-1-yl)-2-oxoethoxy)ethyl)-1H-1,2,3-triazol-4-yl)-2-methyl-15-oxo-5,811-trioxa-2,14-diazanonadecan-19-oic acid]	22	9.3	15.4	0.000169	0.0194	8.72e+06	–	18.5	16.3
Cc1nc2cc(F)c(-c3cnc(N4CCN(C(=O)COCCn5cc(CN(CCO)CCOCCOCCOCCNC(=O)CC[C@H](NC(=O)c6ccc(NCc7cnc8nc(N)nc(O)c8n7)cc6)C(=O)O)nn5)CC4)nc3)nc2c(N[C@H](C)c2cc(C#N)ccc2F)c1Cl [Compound I-93, (S)-19-(4-(((2-amino-4-hydroxypteridin-6-yl)methyl)amino)benzamido)-3-((1-(2-(2-(4-(5-(7-chloro-8-(((R)-1-(5-cyano-2-fluorophenyl)ethyl)amino)-3-fluoro-6-methyl-1,5-naphthyridin-2-yl)pyrimidin-2-yl)piperazin-1-yl)-2-oxoethoxy)ethyl)-1H-1,2,3-triazol-4-yl)methyl)-1-hydroxy-16-oxo-6,9,12-trioxa-3,15-diazaicosan-20-oic acid]	18	6.6	17.7	0.000178	0.0109	1.63e+07	–	18.2	16.1
Cc1nc2cc(F)c(-c3cnc(N4CCN(C(=O)COCCn5cc(COCCOCCOCCN6CCN(C(=O)CC[C@H](NC(=O)c7ccc(NCc8cnc9nc(N)nc(O)c9n8)cc7)C(=O)O)CC6)nn5)CC4)nc3)nc2c(N[C@H](C)c2cc(C#N)ccc2F)c1Cl [Compound I-95, (S)-2-(4-(((2-amino-4-hydroxypteridin-6-yl)methyl)amino)benzamido)-5-(4-(2-(2-(2-((1-(2-(2-(4-(5-(7-chloro-8-(((R)-1-(5-cyano-2-fluorophenyl)ethyl)amino)-3-fluoro-6-methyl-1,5-naphthyridin-2-yl)pyrimidin-2-yl)piperazin-1-yl)-2-oxoethoxy)ethyl)-1H-1,2,3-triazol-4-yl)methoxy)ethoxy)ethoxy)ethyl)piperazin-1-yl)-5-oxopentanoic acid]	26	11	14.8	0.000337	0.0215	1.56e+07	–	18.6	17.3
Cc1nc2cc(F)c(-c3cnc(N4CCN(C(=O)COCCOCCOCCOCCOCCOCCn5cc(CC[C@H](NC(=O)c6ccc(CCc7ccc8nc(N)nc(O)c8c7)cc6)C(=O)O)nn5)CC4)nc3)nc2c(N[C@H](C)c2cc(C#N)ccc2F)c1Cl [Compound I-82, (S)-2-(4-(2-(2-amino-4-hydroxyquinazolin-6-yl)ethyl)benzamido)-4-(1-(20-(4-(5-(7-chloro-8-(((R)-1-(5-cyano-2-fluorophenyl)ethyl)amino)-3-fluoro-6-methyl-1,5-naphthyridin-2-yl)pyrimidin-2-yl)piperazin-1-yl)-20-oxo-3,6,9,12,15,18-hexaoxaicosyl)-1H-1,2,3-triazol-4-yl)butanoic acid]	19	4.9	14.5	0.000591	0.031	1.91e+07	15.7	24.9	–
Cc1nc2cc(F)c(-c3cnc(N4CCN(C(=O)COCCn5cc(COCCOCCOCCOCCNC(=O)CC[C@H](NC(=O)c6ccc(SCCc7cc8c(=O)[nH]c(N)nc8[nH]7)cc6)C(=O)O)nn5)CC4)nc3)nc2c(N[C@H](C)c2cc(C#N)ccc2F)c1Cl [Compound I-98, (S)-18-(4-((2-(2-amino-4-oxo-4,7-dihydro-3H-pyrrolo[2,3-d]pyrimidin-6-yl)ethyl)thio)benzamido)-1-(1-(2-(2-(4-(5-(7-chloro-8-(((R)-1-(5-cyano-2-fluorophenyl)ethyl)amino)-3-fluoro-6-methyl-1,5-naphthyridin-2-yl)pyrimidin-2-yl)piperazin-1-yl)-2-oxoethoxy)ethyl)-1H-1,2,3-triazol-4-yl)-15-oxo-2,5,8,11-tetraoxa-14-azanonadecan-19-oic acid]	19	133	14.8	0.000774	0.172	4.49e+06	–	19.4	16.7
